“And” between values parts separate entries of the source, which are not always exact repeats. Equal entries are not always repeated. Where two headings read alike, the source gives them in different places.
What was measured:
[1] = tested on: paclitaxel-resistant A549/T cells; assay: cells; conditions: Homo sapiens, A549, 96 h; for inhibition at 5 µM / inhibition at 10 µM / inhibition at 20 µM: read-out: Growth inhibition rate
Protocol: (§6) After incubation overnight, 100 μL of culture medium supplemented with various concentrations of compounds was added to each well. After incubation for 96 h, 50 μL of methyl thiazolyl tetrazolium (MTT) solution (2 mg/mL) was added to each well and incubated at 37° C. for 4 h. The culture medium was suctioned, and the cells were dissolved in 200 μL of DMSO. The absorbance at 570 nm was measured by using a microplate reader. The growth inhibition rate GI50 was calculated by GraphPadPrism5.

Hela = assay: Cell growth inhibition assay, adherent cells, MTT, 96 h; assay type: cell-based; conditions: Homo sapiens, cervical carcinoma, 96 h MTT
Protocol: (§1) Human acute myeloid leukemia cells HL-60, human chronic myeloid leukemia cells K562, human prostate cancer cell line PC-3, human hepatoma cells HepG-2, human colon cancer cells HC-T116, and human cervical cancer cell line Hela were purchased from American Type Culture Collection (ATCC). Human acute myeloid leukemia cells MOLM-13 were purchased from DSMZ-Deutsche Sammlung von Mikroorganismen und Zellkulturen GmbH (Braunschweig Germany).
(§2) The growth inhibition rate GI50 was calculated by GraphPadPrism5.

PC-3 = assay: as above; assay type: cell-based; conditions: Homo sapiens; PC-3, prostatic cancer, 96 h MTT
Protocol: as §1, §2

HCT-116 = assay: as above; assay type: cell-based; conditions: Homo sapiens; HCT-116, colorectal cancer, 96 h MTT
Protocol: as §1, §2

HepG-2 = assay: as above; assay type: cell-based; conditions: Homo sapiens, HepG2; HepG-2, liver cancer, 96 h MTT
Protocol: as §1, §2

[2] = tested on: paclitaxel-resistant MCF-7/T cells; assay: Growth inhibition of paclitaxel-resistant breast cancer cells; assay type: cell-based, human; conditions: for GI50: Homo sapiens, MCF7, MCF-7/T paclitaxel-resistant cells; for RI: resistance index: ratio of GI50 MCF-7/T to MCF-7
Protocol: as §2

A549/T xenograft = A549/T xenograft model in BALB/c-nu mice; assay type: in vivo; conditions: i.p. every other day, 10 times, colchicine 0.5 mg/kg, paclitaxel 10 mg/kg, methylaminocolchicine 0.25 and 0.5 mg/kg
Protocol: Male BALB/c-nu mice (aged 6-8 weeks and weighing 18-20 g) were purchased from Beijing HFK Bioscience Co., Ltd. A549/T cells in logarithmic growth phase were mixed with Matrigel, and inoculated subcutaneously in the right armpit of a BALB/c-nu mouse at a density of 5×10^6 cells/mouse.
The mental state of the mice was monitored every day. The mouse weight was measured and recorded, and mouse weight change curves were plotted based on the average body weight of each group. The long and short diameters of tumors were measured every two days, and the tumor volume was calculated according to the tumor volume calculation formula: tumor volume=(long diameter×short diameter^2)/2. Tumor growth curves were plotted (FIG. 1A).

A549 cells = assay: Growth inhibition of parental NSCLC cells; assay type: cell-based, human
Protocol: as §2

[3] = tested on: paclitaxel-resistant MX-1/T cells; assay: Growth inhibition of paclitaxel-resistant breast cancer cells; conditions: for GI50: Homo sapiens, read-out: GI50 ± SD; for RI: resistance index: ratio of GI50 MX-1/T to MX-1
Protocol: (§7) Adherent cells: PC-3, HepG-2, HCT-116, and Hela cells were inoculated into a 96-well plate at a density of 1,000-3,500 cells/mL. After incubation overnight, 100 μL of culture medium supplemented with various concentrations of compounds was added to each well. After incubation for 96 h, 50 μL of methyl thiazolyl tetrazolium (MTT) solution (2 mg/mL) was added to each well and incubated at 37° C. for 4 h. The culture medium was suctioned, and the cells were dissolved in 200 μL of DMSO. The absorbance at 570 nm was measured by using a microplate reader. The growth inhibition rate GI50 was calculated by GraphPadPrism5.
(§8) The cells used in the assay included human NSCLC A549 cells and paclitaxel-resistant A549/T cells, human breast cancer MCF-7 cells and paclitaxel-resistant MCF-7/T cells, human breast cancer MX-1 cells and paclitaxel-resistant MX-1/T cells, and human oral epidermoid carcinoma KB cells and vincristine-resistant KB/V cells.
(§9) A549 and A549/T cells were cultured in 1640 Medium, while MX-1, MX-1/T, MCF-7, MCF-7/T, KB, and KB/V cells were cultured in DMEM supplemented with 10% inactivated FBS, 10 mmol/L L-glutamine, 100 U/mL penicillin, and 100 μg/mL streptomycin in a 37° C., 5% CO2 and saturated humidity incubator.

[4] = tested on: paclitaxel-resistant A549/T cells; assay: cells; conditions: Homo sapiens, A549, read-out: GI50 ± SD
Protocol: as §7, §8, §9
(§10) Cell lines used in the assay included human NSCLC A549 cells and paclitaxel-resistant A549/T cells.

MOLM-13 = assay: Cell growth inhibition assay, suspension cells, Trypan Blue counting, 72 h; assay type: cell-based; conditions: Homo sapiens, MOLM-13, leukemia
From the text: as §1
(§3) Suspension cells: Leukemia cells HL-60, MOLM-13, and K562 were inoculated into a 24-well plate at a density of 0.5-1×10^5 cells/mL. Subsequently, the cells were incubated with different concentrations of compounds in an incubator for 72 h. Then, the culture plate was removed from the incubator. In each well, the cells and the compounds were mixed well; 50 μL of cell suspension was transferred and mixed well with 50 μL of Trypan Blue (0.4%), followed by counting microscopically.
(§4) Cell growth inhibition rate was calculated according to the following formula. The growth inhibition rate GI50 (the concentration that results in inhibiting cell growth by 50%) was calculated by GraphPadPrism5.
(§5) Growth inhibition rate=(1−Cell count of the drug group/Cell count of the control group)×100%.

HL-60 = assay: as above; assay type: cell-based; conditions: Homo sapiens, HL-60, leukemia
From the text: as §1, §3, §4, §5

K562 = assay: as above; assay type: cell-based; conditions: Homo sapiens, K562, leukemia
From the text: as §1, §3, §4, §5

MX-1 cells = assay: Growth inhibition of parental breast cancer cells; assay type: cell-based; conditions: Homo sapiens, MX1; MX-1 parental cells
Protocol: as §2

MCF-7 cells = assay: Growth inhibition of parental breast cancer cells; assay type: cell-based; conditions: Homo sapiens, MCF7; MCF-7 parental cells
Protocol: as §2

KB cells = assay: Growth inhibition of parental oral epidermoid carcinoma cells; assay type: cell-based; conditions: Homo sapiens
Protocol: as §2

[5] = tested on: vincristine-resistant KB/V cells; assay: Growth inhibition of vincristine-resistant oral epidermoid carcinoma cells; conditions: for GI50: Homo sapiens, KBV, read-out: GI50 ± SD; for RI: resistance index: ratio of GI50 KB/V to KB
Protocol: as §7, §8, §9

[6] = tested on: paclitaxel-resistant A549/T cells; conditions: 96 h
Protocol: as §6

Porcine brain tubulin [7] = target: T1, Porcine brain tubulin (Sus scrofa, UniProt P02550+P02554); parameters: In vitro tubulin polymerization assay was carried out using purified tubulin; purchased Cytoskeleton, Denver, CO BK011P; host or cells: porcine brain (tissue-purified); conditions: It has been known; cited from earlier work
[8] = tested on: paclitaxel-resistant A549/T cells; conditions: for GI50: A549/T cells, salts (Table 3)
Protocol: as §7, §8, §9, §10

Porcine brain tubulin [9] = target: T1, Porcine brain tubulin
Protocol: In vitro tubulin polymerization assay was carried out using purified tubulin. BK011P-Tubulin Polymerization Assay Kit (Cytoskeleton, Denver, CO) was used. Porcine brain tubulin solution (2 mg/mL) was prepared by using tubulin buffer (80 mM PIPES, 2.0 mM MgCl2, 0.5 mM EGTA, 15% v/v glycerol, and 1 mM GTP). […] Fluorescence intensities (ex-360 nm, em-450 nm) was measured and monitored every 1 min, for consecutive 80 min (FIG. 2).

[10] = Homo sapiens, A549 parental cells, read-out: GI50 ± SD
[11] = A549 cells, salts (Table 3), read-out: GI50
[12] = ratio of GI50 A549/T to A549, salts (Table 3)

T1 sequence (P02550 whole entry): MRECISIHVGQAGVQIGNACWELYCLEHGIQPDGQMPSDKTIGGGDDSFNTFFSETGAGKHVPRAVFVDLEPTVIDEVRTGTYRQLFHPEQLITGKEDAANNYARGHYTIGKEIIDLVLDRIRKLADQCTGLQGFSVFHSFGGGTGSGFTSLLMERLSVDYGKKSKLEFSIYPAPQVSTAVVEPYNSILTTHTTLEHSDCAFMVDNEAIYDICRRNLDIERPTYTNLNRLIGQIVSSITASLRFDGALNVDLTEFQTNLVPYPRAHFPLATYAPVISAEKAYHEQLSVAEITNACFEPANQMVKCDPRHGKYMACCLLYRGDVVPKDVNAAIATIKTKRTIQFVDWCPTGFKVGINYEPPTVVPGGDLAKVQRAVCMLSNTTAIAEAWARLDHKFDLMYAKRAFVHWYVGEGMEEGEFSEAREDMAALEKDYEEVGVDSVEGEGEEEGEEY
T1 sequence (P02554 whole entry): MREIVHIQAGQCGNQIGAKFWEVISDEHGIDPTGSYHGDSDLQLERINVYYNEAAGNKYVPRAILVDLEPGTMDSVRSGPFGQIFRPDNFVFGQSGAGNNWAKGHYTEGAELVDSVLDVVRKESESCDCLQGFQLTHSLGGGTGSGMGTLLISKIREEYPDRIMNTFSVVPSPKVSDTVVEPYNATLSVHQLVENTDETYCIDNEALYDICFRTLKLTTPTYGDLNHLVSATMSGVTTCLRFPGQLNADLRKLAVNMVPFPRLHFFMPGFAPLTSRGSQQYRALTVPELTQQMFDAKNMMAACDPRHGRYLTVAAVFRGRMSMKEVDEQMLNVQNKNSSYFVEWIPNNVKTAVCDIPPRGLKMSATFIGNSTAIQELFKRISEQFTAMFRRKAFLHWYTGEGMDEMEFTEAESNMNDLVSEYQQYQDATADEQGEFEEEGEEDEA

`CN(C)CC#Cc1ccc(OCCCc2sc(N3CCc4cccc(C(=O)Nc5nc6ccccc6s5)c4C3)nc2C(=O)O)c(F)c1` [A1155463] gave an inhibition at 5 µM [1] of 6.97%, an inhibition at 10 µM [1] of 12.1% and an inhibition at 20 µM [1] of 23.7%.

In the case of `Cc1c(-c2ccc(N3CCc4cccc(C(=O)Nc5nc6ccccc6s5)c4C3)nc2C(=O)O)cnn1CC12CC3CC(CC(C3)C1)C2` [A1331852], the inhibition at 5 µM [1] is reported as 5.17%, the inhibition at 10 µM [1] is reported as 11.2% and the inhibition at 20 µM [1] is reported as 17.5%.

With `COc1cc2c(c(OC)c1OC)-c1ccc(OC)c(=O)cc1[C@@H](NC(C)=O)CC2` [Colchicine] the GI50 (Hela) was 124 ± 8.41 nM, the GI50 (PC-3) was 90.5 ± 25.2 nM and the GI50 (HCT-116) was 79.3 ± 6.59 nM. The GI50 (HepG-2) was 57.7 ± 5.41 nM, the GI50 [2] was 251 ± 61 nM and the Tumor growth inhibition (A549/T xenograft) was “neither paclitaxel nor colchicine can significantly inhibit the tumor growth”. The GI50 (A549 cells; [10]) was 38.4 ± 3.37 nM, the GI50 [3] was 838.2 ± 2.62 nM and the GI50 [4] was 1083 ± 2.37 nM. It also gave a GI50 (MOLM-13) of 11.6 ± 1.21 nM, a GI50 (HL-60) of 9.3 ± 3.7 nM and a GI50 (K562) of 10.7 ± 1.5 nM. The GI50 (MX-1 cells) was 57.9 ± 7.55 nM, the GI50 (MCF-7 cells) was 51.4 ± 10.8 nM and the GI50 (KB cells) was 10.9 ± 1.26 nM. The GI50 [5] was 88.8 ± 9.83 nM.

`CNc1ccc2c(cc1=O)C(NC(C)=O)CCc1cc(OC)c(OC)c(OC)c1-2` (stereo not drawn) [Methylaminocolchicine] gave a GI50 (Hela) of 9.97 ± 2.34 nM, a GI50 (PC-3) of 9.19 ± 0.81 nM and a GI50 (HCT-116) of 9.16 ± 4.19 nM. The GI50 (HepG-2) was 7.05 ± 1.74 nM, the GI50 [2] was 47.6 ± 2.82 nM and the Growth inhibition rate ([6]; methylaminocolchicine alone 40 nM) was 3.08% and 0.97%. For the same compound, the Growth inhibition rate ([6]; methylaminocolchicine alone 80 nM) was 42.77% and 37.66% and 38.92%, the GI50 (A549 cells; [10]) was 6.88 ± 0.67 nM and the inhibition at 0.02 µM ([1]; read-out: Growth inhibition rate, A549/T, 96 h, methylaminocolchicine alone 20 nM) was 1%. For the same compound, the inhibition at 0.08 µM ([1]; read-out: Growth inhibition rate, A549/T, 96 h, methylaminocolchicine alone 80 nM) was 34.5%, the GI50 [3] was 11.4 ± 1.2 nM and the GI50 [4] was 23.64 ± 0.06 nM. The GI50 (MOLM-13) was 4.87 ± 0.86 nM, the GI50 (HL-60) was 3.5 ± 0.14 nM and the GI50 (K562) was 5 ± 0.32 nM. For the same compound, the GI50 (MX-1 cells) was 11.2 ± 1.17 nM, the GI50 (MCF-7 cells) was 20.7 ± 2.8 nM and the GI50 (KB cells) was 6.41 ± 2.39 nM. The GI50 [5] was 36.3 ± 6.77 nM.

Work on `CC1(C)CCC(c2ccc(Cl)cc2)=C(CN2CCN(c3ccc(C(=O)NS(=O)(=O)c4ccc(N[C@H](CCN5CCOCC5)CSc5ccccc5)c(S(=O)(=O)C(F)(F)F)c4)cc3)CC2)C1` [Navitoclax] yielded an inhibition at 5 µM [1] of 2.84%, an inhibition at 10 µM [1] of 67.7% and an inhibition at 20 µM [1] of 96.3%.

For `CC(=O)O[C@H]1C(=O)[C@@]2(C)[C@H]([C@H](OC(=O)c3ccccc3)[C@]3(O)C[C@H](OC(=O)[C@H](O)[C@@H](NC(=O)c4ccccc4)c4ccccc4)C(C)=C1C3(C)C)[C@]1(OC(C)=O)CO[C@@H]1C[C@@H]2O` [Paclitaxel], the GI50 [2] was 941 ± 265 nM, the “RI: resistance index” value [2] was 16.24 and the Tumor growth inhibition (A549/T xenograft) was “neither paclitaxel nor colchicine can significantly inhibit the tumor growth”. For the same compound, the GI50 (A549 cells; [10]) was 23.1 ± 1.39 nM, the “Effect on tubulin polymerization (known action of control drugs)” value (Porcine brain tubulin [7]) was “promotes tubulin polymerization” and the GI50 [3] was 1130 ± 228 nM. The “RI: resistance index” value [3] was 16.73, the GI50 [4] was 4760 ± 75 nM and the GI50 (MX-1 cells) was 67.3 ± 5.92 nM. For the same compound, the GI50 (MCF-7 cells) was 58 ± 9.62 nM, the “RI: resistance index” value ([8]; ratio of GI50 A549/T to A549) was 209.45 and the GI50 (KB cells) was 3.52 ± 0.95 nM. For the same compound, the GI50 [5] was 604 ± 28.6 nM and the “RI: resistance index” value [5] was 171.48.

For `CC1(C)CCC(CN2CCN(c3ccc(C(=O)NS(=O)(=O)c4ccc(NCC5CCOCC5)c([N+](=O)[O-])c4)c(Oc4cnc5[nH]ccc5c4)c3)CC2)=C(c2ccc(Cl)cc2)C1` [Venetoclax], the inhibition at 5 µM [1] was 23.2%, the inhibition at 10 µM [1] was 57.7% and the inhibition at 20 µM [1] was 95.5%.

In the case of `CC[C@]1(O)C[C@H]2CN(CCc3c([nH]c4ccccc34)[C@@](C(=O)OC)(c3cc4c(cc3OC)N(C=O)[C@H]3[C@@](O)(C(=O)OC)[C@H](OC(C)=O)[C@]5(CC)C=CCN6CC[C@]43[C@@H]65)C2)C1` [Vincristine], the “Effect on tubulin polymerization” value (Porcine brain tubulin [9]) is reported as “Like vincristine, colchicine could inhibit tubulin polymerization”, the GI50 [2] is reported as 576 ± 80.7 nM and the “RI: resistance index” value [2] is reported as 3.63. For the same compound, the GI50 (A549 cells; [10]) was 45.6 ± 3.68 nM, the “Effect on tubulin polymerization (known action of control drugs)” value (Porcine brain tubulin [7]) was “inhibits it” and the GI50 [3] was 262 ± 6.8 nM. For the same compound, the “RI: resistance index” value [3] was 14.47, the GI50 [4] was 1130 ± 12.7 nM and the GI50 (MX-1 cells) was 16.7 ± 6.87 nM. For the same compound, the GI50 (MCF-7 cells) was 159 ± 44.6 nM, the “RI: resistance index” value ([8]; ratio of GI50 A549/T to A549) was 24.7 and the GI50 (KB cells) was 2.69 ± 1.53 nM. For the same compound, the GI50 [5] was 268 ± 13.1 nM and the “RI: resistance index” value [5] was 99.68.

With Methylaminocolchicine Hydrochloride the GI50 (A549 cells; [11]) was 16.9 nM, the GI50 [8] was 63.7 nM and the “RI: resistance index” value [8, 12] was 3.77.

In the case of Methylaminocolchicine Mesylate, the GI50 (A549 cells; [11]) is reported as 17 nM, the GI50 [8] is reported as 29.9 nM and the “RI: resistance index” value [8, 12] is reported as 1.76.

With Methylaminocolchicine Sulfate the GI50 (A549 cells; [11]) was 21.9 nM, the GI50 [8] was 42.4 nM and the “RI: resistance index” value [8, 12] was 1.94.

In the case of Methylaminocolchicine Tartrate, the GI50 (A549 cells; [11]) is reported as 16.2 nM, the GI50 [8] is reported as 32.4 nM and the “RI: resistance index” value [8, 12] is reported as 1.99.

With “Methylaminocolchicine p-Toluenesulfonate” the GI50 (A549 cells; [11]) was 18.3 nM, the GI50 [8] was 72.7 nM and the “RI: resistance index” value [8, 12] was 3.98.

From US20240238223A1 (Shenyang Pharmaceutical University, priority 2023, published 2024)
